Measured values: ChEMBL document CHEMBL1201862, “PubChem BioAssay data set” (2004)
The source made the active and inactive calls.

Tests used:
[1] = P. falciparum Dd2 growth inhibitors, dose response, SYBR Green, cherry-picked samples (AID 1159567); type: functional, cell-based
[2] = biological target: T1, Carboxy-terminal domain RNA polymerase II polypeptide A small phosphatase 1 (Homo sapiens, UniProt Q9GZU7); test: CTDSP1 inhibitors, concentration-response, biochemical, absorbance readout, ultra-high-throughput screen actives (AID 540297); type: functional
T1 sequence (Q9GZU7 whole entry): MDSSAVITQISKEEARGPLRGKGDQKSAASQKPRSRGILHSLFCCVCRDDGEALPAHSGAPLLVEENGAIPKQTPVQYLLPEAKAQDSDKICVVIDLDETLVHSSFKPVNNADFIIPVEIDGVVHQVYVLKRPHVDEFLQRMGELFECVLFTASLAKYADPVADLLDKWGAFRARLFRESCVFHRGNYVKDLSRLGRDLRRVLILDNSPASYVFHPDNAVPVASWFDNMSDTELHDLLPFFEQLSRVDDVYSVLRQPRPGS

[3] = Luminescence Cell-Based Dose Response HTS to Identify Activators of Luciferase Translation or Activity in H4 […] Cells. [Related pubchem assays: 1829 (Project Summary), 1814 (Primary HTS)]; type: functional
[4] = system: H4; test: Luminescence Cell-Based Dose Response HTS to Identify Activators of 5'UTR Stem-Loop Driven Prion Protein mRNA Translation in H4 Neuroglioblastoma Cells. [Related pubchem assays: 1829 (Project Summary), 1814 (Primary HTS)]; type: functional; details: Homo sapiens
[5] = Luminescence Cell-Based Dose Confirmation HTS to Identify Activators of 5'UTR Stem-Loop Driven Alpha-Synuclein mRNA Translation in H4 Neuroglioblastoma Cells. [Related pubchem assays: 1829 (Project Summary), 1814 (Primary HTS)]; type: functional
[6] = biological target: Cytochrome P450 2C9 (Homo sapiens, UniProt P11712)
Sequence of Cytochrome P450 2C9 (P11712 whole entry): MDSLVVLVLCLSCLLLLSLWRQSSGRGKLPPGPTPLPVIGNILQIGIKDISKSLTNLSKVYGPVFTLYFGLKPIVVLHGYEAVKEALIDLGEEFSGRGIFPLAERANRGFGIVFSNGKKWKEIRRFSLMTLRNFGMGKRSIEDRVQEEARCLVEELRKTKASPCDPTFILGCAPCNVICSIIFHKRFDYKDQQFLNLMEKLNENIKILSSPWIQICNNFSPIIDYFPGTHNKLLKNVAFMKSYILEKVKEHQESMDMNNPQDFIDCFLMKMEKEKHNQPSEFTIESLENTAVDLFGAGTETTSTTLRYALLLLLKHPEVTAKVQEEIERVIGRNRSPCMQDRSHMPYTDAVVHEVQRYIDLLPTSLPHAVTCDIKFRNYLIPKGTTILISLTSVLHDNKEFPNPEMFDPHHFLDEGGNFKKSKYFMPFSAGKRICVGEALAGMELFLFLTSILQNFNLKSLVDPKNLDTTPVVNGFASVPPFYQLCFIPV

[7] = biological target: Cytochrome P450 3A4 (Homo sapiens, UniProt P08684);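 also: CYP3A4 tested as one member of a cytochrome P450 panel screen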
Sequence of Cytochrome P450 3A4 (P08684 whole entry): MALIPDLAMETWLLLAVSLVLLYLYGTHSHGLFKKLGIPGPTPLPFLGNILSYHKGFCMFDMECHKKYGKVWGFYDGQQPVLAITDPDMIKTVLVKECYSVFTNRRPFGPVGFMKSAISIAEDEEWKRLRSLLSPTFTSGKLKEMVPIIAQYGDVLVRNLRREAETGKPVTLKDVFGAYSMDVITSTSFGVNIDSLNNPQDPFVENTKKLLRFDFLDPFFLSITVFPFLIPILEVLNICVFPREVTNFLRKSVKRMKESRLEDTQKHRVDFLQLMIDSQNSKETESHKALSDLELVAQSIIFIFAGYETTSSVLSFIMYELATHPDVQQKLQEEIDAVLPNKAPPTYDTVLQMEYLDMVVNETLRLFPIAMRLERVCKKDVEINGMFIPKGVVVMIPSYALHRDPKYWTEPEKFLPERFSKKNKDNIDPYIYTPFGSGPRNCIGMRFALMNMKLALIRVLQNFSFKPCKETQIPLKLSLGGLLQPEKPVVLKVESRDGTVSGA

[8] = biological target: T2, Cytochrome P450 1A2 (Homo sapiens, UniProt P05177);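 also: PubChem cytochrome P450 panel assay, CYP1A2 panel member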
T2 sequence (P05177 whole entry): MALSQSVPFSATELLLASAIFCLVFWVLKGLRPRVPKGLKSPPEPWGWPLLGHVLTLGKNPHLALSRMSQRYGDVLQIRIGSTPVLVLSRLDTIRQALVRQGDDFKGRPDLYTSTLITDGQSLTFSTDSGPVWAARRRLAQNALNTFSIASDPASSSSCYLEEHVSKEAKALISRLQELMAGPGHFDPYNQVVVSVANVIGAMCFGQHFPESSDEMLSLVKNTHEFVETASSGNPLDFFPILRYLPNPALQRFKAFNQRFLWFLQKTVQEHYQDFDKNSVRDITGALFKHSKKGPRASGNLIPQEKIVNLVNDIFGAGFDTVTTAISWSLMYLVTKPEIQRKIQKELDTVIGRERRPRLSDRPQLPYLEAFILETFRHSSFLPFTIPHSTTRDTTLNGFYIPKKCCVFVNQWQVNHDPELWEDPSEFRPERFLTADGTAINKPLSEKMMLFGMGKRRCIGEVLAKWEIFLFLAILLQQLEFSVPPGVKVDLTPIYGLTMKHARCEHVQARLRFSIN

[9] = biological target: T3, Polyadenylate-binding protein 1 (Homo sapiens, UniProt P11940); test: MLLE domain peptide-binding blockers, IC50 – biochemical, fluorescence polarization, FITC-PAM2 peptide, dose response (AID 602259); type: functional; details: read-out: IC50_Mean
T3 sequence (P11940 whole entry, the tested form may be a part): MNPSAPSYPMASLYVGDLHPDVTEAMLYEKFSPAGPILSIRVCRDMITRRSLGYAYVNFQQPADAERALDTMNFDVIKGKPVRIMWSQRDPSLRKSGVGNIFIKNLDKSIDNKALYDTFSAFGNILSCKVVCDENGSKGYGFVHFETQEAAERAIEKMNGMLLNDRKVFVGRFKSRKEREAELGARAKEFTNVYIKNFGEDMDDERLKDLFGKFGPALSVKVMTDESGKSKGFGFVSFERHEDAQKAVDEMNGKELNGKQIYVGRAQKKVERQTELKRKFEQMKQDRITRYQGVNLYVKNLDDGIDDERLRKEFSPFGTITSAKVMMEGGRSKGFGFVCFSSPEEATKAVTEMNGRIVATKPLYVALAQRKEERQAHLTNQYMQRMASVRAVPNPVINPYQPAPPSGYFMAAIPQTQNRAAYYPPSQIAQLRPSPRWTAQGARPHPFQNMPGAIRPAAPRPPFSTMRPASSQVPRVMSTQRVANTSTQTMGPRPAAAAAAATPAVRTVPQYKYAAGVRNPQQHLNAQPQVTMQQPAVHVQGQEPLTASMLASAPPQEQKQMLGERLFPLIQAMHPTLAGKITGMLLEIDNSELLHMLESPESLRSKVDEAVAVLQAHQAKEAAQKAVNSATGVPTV

[10] = biological target: T3, Polyadenylate-binding protein 1; test: MLLE binding blockers, Cy5 peptide tracer – biochemical, fluorescence polarization, Cy5-PAM2 peptide, secondary, miRNA deadenylation inhibitor project, dose response (AID 602260); type: functional; details: read-out: IC50_Mean
[11] = biological target: T4, RNA-binding protein pos-1 (Caenorhabditis elegans, UniProt G5EF15); test: disruptors of C. elegans POS-1 RNA interaction – biochemical, fluorescence polarization, dose response (AID 1964);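 also: purified POS-1 fused to maltose binding protein made in E. coli; potency of compounds blocking POS-1 binding to fluorescent RNA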
T4 sequence (G5EF15 whole entry): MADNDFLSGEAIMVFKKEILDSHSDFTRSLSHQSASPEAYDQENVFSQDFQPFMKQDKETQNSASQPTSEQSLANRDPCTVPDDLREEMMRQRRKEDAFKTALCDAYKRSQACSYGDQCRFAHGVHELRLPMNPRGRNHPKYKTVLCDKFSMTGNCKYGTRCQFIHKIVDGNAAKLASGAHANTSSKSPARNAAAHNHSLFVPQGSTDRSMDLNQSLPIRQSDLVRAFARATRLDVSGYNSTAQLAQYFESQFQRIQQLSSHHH

[12] = biological target: T5, Zinc finger protein mex-5 (Caenorhabditis elegans, UniProt Q9XUB2); test: potency of MEX-5 RNA-binding blockers – biochemical, C. elegans, fluorescence polarization, dose response (AID 1960)
T5 sequence (Q9XUB2 whole entry): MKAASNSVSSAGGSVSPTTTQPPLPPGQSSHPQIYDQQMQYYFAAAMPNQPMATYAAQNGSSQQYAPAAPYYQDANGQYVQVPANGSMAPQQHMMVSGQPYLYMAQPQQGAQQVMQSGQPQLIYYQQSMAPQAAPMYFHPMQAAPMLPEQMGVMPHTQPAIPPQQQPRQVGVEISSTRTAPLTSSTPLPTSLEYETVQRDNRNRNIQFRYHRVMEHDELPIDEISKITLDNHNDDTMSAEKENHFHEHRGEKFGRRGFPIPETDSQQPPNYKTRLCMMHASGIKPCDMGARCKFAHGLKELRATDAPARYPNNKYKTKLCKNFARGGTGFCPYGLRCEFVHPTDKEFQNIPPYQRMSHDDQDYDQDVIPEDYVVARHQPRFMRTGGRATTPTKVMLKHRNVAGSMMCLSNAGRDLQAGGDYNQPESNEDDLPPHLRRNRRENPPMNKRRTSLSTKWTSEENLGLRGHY

[13] = biological target: Glucose-6-phosphate 1-dehydrogenase (Homo sapiens, UniProt P11413); test: inhibition of Homo sapiens G6PD, dose series – biochemical, fluorescence, selectivity assay for P. falciparum G6PD inhibitor project, dose response (AID 504792); type: functional
Sequence of Glucose-6-phosphate 1-dehydrogenase (P11413 whole entry): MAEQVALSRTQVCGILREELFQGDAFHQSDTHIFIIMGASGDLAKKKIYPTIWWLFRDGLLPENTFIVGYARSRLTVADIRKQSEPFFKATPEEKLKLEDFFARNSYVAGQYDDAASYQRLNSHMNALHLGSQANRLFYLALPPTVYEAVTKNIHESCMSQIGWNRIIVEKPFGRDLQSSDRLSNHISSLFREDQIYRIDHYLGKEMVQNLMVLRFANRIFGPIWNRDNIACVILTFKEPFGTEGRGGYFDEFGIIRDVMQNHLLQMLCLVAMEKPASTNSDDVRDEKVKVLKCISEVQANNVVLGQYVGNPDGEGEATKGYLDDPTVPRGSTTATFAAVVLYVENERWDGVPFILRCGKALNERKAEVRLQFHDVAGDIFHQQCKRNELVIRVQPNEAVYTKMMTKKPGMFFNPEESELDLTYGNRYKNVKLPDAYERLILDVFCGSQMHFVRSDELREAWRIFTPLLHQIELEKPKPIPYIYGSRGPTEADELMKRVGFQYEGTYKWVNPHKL

[14] = microbe, parasite or virus in culture; type: functional; details: Mycobacterium tuberculosis
[15] = Luminescence Cell-Based Dose Retest to Confirm Inhibitors of Cancer Stem Cells. [Related pubchem assays (depositor defined):AID2717, AID2721]; type: functional; details: Homo sapiens

With `CN1C(=O)c2cc(NC(=O)c3cnccn3)ccc2OC[C@H]2O[C@@H](CC(=O)N[C@H]3CCN(Cc4ccccc4)C3)CC[C@H]21` the AC50 [1] was 6.41 µM (active).

With `O=C1CC(=O)N2N=C(c3ccc([N+](=O)[O-])cc3)SC2=N1` the IC50 [2] was 5.67 µM (active).

For `Cc1ccc(C(=O)Cn2nnc3ccccc32)cc1`, the EC50 [3] was 0.325 µM (active), the EC50 [4] was 77.2 µM (active) and the EC50 [5] was 0.276 µM (active).

In the case of `NCCSC[C@H](N)C(=O)O`, the AC50 [6] is reported as “inconclusive”.

For `CCNc1ncc2nc(-c3ccccc3)c(=O)n(Cc3ccc(F)cc3)c2n1`, the AC50 [6] was “inconclusive”, the AC50 [7] was 20 µM (inconclusive) and the AC50 [8] was 3.16 µM (inconclusive).

In the case of `CCCCc1cn([C@@H](CCCCN)C(=O)N2CCNCC2)nn1`, the IC50 [9] is reported as 21 µM (inactive), the IC50 [10] is reported as > 66 µM (inactive) and the EC50 [11] is reported as 31.9 µM (active). The EC50 [12] was 26.1 µM (active).

For `CON=C(C(=O)NC1C(=O)N2C(C(=O)O)=C(CSc3nc(=O)c(=O)[nH]n3C)CSC12)c1csc(N)n1` (configuration not stated), the IC50 [2] was 2.89 µM (active).

With `c1ccc(-c2ccc3c(n2)CCCO3)cc1` the EC50 [3] was 55.5 µM (active), the EC50 [4] was 7.05 µM (active) and the EC50 [5] was 47.7 µM (active).

In the case of `CC(=O)NC1=NC(=O)CS1`, the AC50 [6] is reported as “inconclusive” and the AC50 [8] is reported as 0.2 µM (inconclusive).

For `Cc1nnc2oc(O)c(C)c(C)c1-2`, the AC50 [6] was “inconclusive”.

For `COCC(=O)N1[C@H](CO)[C@@H](c2ccccc2)C12CN(Cc1cc(F)ccc1F)C2`, the AC50 [1] was 18.1 µM (active).

For `CC(SCC(=O)Nc1ccccc1)c1nc(O)c2ccccc2n1` (configuration not stated), the IC50 [13] was 22.3 µM (inactive).

With `Cc1cc(Nc2cc(Cl)nc(Sc3ccc(NC(=O)C4CC4)cc3)n2)[nH]n1` the CC50 [14] was 35.8 µM (active).

For `CCc1c(C)sc(NC(=O)OC)c1C(N)=O`, the AC50 [6] was “inconclusive”.

For `CC1CC(C)CN(C(=O)COC(=O)/C=C/c2ccco2)C1` (configuration not stated), the IC50 [2] was 19.9 µM (active).

In the case of `CCCS(=O)(=O)N1CCN=C1SCc1cccnc1`, the IC50 [9] is reported as > 66 µM (inactive) and the IC50 [10] is reported as > 66 µM (inactive).

With `O=C(CCc1ccccc1)NC(=S)Nc1ccc(S(=O)(=O)N2CCOCC2)cc1` the IC50 [9] was > 66 µM (inactive) and the IC50 [10] was > 66 µM (inactive).

With `Cc1ccc(OC/C(O)=C(\C#N)c2nc3ccccc3s2)cc1` the CC50 [14] was > 40 µM (active) and the AC50 [15] was 6.14 µM (active).

In the case of `O=C(OCc1cc(=O)n2c(n1)sc1ccccc12)c1ccc2c(=O)n3c(nc2c1)CCC3`, the IC50 [2] is reported as 5.85 µM (active).
